Values quoted from earlier work in patent US20240082153A1, “IVERMECTIN FORMULATION IN ORAL SOLUTION” (PROCAPS S.A., priority 2020, published 2024).

Legend:
SARS-CoV-2 = settings: in vitro, after 48 hours

Q: With Ivermectin as the substance, how does the “reduction in viral RNA” value (SARS-CoV-2) read?
A: Its value is “approximately 5,000 fold”.

Q: What about the solubility in water of the same substance?
A: Its solubility in water is “practically insoluble in water”.
